Measurements published in publication PMC6017603, “Speeding Up the Identification of Cystic Fibrosis Transmembrane Conductance Regulator-Targeted Drugs: An Approach Based on Bioinformatics Strategies and Surface Plasmon Resonance” (Molecules : A Journal of Synthetic Chemistry and Natural …, 2018).

How the values were obtained:
ΔF508-NBD1 = target: T1, ΔF508-NBD1 (Mus musculus, UniProt P26361, DEL508-508); assay: SPR direct binding to sensor chip-immobilized ΔF508-NBD1; design: species or system murine; settings: for binding to ΔF508-NBD1 (SPR): increasing concentrations injected over immobilized ΔF508-NBD1; for Kd / RU of ligand bound to ΔF508-NBD1 at equilibrium (maximal RU): SPR; for Kd: Scatchard's plot analysis of equilibrium binding data, mean ± S.D. of two-three analyses, PBS, 0.05% P20, 5% DMSO, pH 7.4, 25 °C; for RU of ligand bound to ΔF508-NBD1 at equilibrium (maximal RU): mean ± s.d. of two-three separate analyses
T1 construct: Murine WT NBD1 and ΔF508-NBD1 were obtained from CFTR Folding Consortium; purchased CFTR Folding Consortium (obtained, not a commercial vendor)
Description: SPR measurements were performed on a BIAcore X-100 instrument (GE-Healthcare, Milwaukee, WI, USA), using research-grade CM5 carboxyl-methyl-dextran–coated sensor chips (GE-Healthcare). The murine ΔF508-NBD1 was resuspended at 20 µg/mL in 10 mM sodium acetate pH 4.0 and allowed to react with the first flow cell of a CM5 sensor chip pre-activated with 50 μL of 0.2 M EDC and 0.05 M NHS and deactivated by injection of HCl–ethanolamine. This procedure led to the immobilization of 11,000 RU, equal to approximately 400 fmol/mm^2 of protein. Similar results were obtained for the injection of BSA (20 µg/mL) onto the second flow cell of each sensor chip, used as a negative control and for blank subtraction. The appropriate immobilization of ΔF508-NBD1 was checked by injecting increasing concentrations of K8 in PBS, 0.05% surfactant P20 and 5% DMSO, pH 7.4 over the sensor chip for 90 s at 10 μL/min, 25 °C and then washed until dissociation was observed. The inclusion of 5% DMSO in the running buffer (not necessary for protein-protein interaction analysis) and the short association time were chosen to validate ΔF508-NBD1 binding availability in the experimental conditions used for the subsequent analysis of the compounds (see below).
For the evaluation of their capacity to directly bind to ΔF508-NBD1, increasing concentrations of the various compounds of the data-set were resuspended in PBS, 0.05% surfactant P20 and 5% DMSO, pH 7.4, injected over ΔF508-NBD1 or BSA surfaces for 90 s at 10 μL/min, 25 °C and then washed until dissociation was observed. Steady state analysis were performed by fitting the proper form of Scatchard’s equation for the plot of the bound RU at equilibrium versus the compound concentration in solution. When saturation binding was reached, Kd values were calculated. In the case no saturation could be reached due the limited solubility of the compound under test, the software provided a Kd value expected on the bases of the curve’s trend.

NBD1 = settings: cited from earlier work
[1] = target: T2, K8/ΔF508-NBD1 interaction (Mus musculus, UniProt P26361, DEL508-508); assay: SPR injection of compounds onto K8-saturated ΔF508-NBD1 surface; assay type: binding, murine; settings: compounds at 150 μM; K8 1 µM saturating
T2 construct: Murine WT NBD1 and ΔF508-NBD1 were obtained from CFTR Folding Consortium; purchased ΔF508-NBD1: CFTR Folding Consortium (obtained); K8: Pro-Spec-Tany TechnoGene Ltd
Description: In a further series of experiments, a saturating amount of K8 (1 µM) was injected on the ΔF508-NBD1 surface and allowed to reach an equilibrium binding. Then, the various compounds of the data-set (150 µM) were injected and their capacity to affect the binding of K8 to ΔF508-NBD1 evaluated.

[2] = target: T3, ΔF508-NBD1/K8 interaction (Mus musculus, UniProt P26361, DEL508-508); assay: SPR competition assay: ΔF508-NBD1 binding to immobilized K8 in the presence of compounds; design: species or system murine; settings: ΔF508-NBD1 600 nM, compound 500 μM; for ΔF508-NBD1 bound to immobilized K8 at equilibrium in the presence of compound: 5% DMSO, ΔF508-NBD1 alone 35 RU
T3 construct: Murine WT NBD1 and ΔF508-NBD1 were obtained from CFTR Folding Consortium; purchased ΔF508-NBD1: CFTR Folding Consortium (obtained); K8: Pro-Spec-Tany TechnoGene Ltd
Description: K8 was used since, as a representative ΔF508-CFTR chaperones, has been repeatedly used for SPR studies and its binding site in ΔF508-CFTR has been mapped. To perform competition assays for the binding to ΔF508-NBD1 between the various compounds and K8, the latter was resuspended at 20 µg/mL in 10 mM sodium acetate pH 4.0 and allowed to react with the first flow cell of a CM5 sensor chip pre-activated with 50 μL of 0.2 M EDC and 0.05 M NHS and deactivated by injection of HCl–ethanolamine. This procedure led to the immobilization of 7800 RU of the protein, (equal to approximately 146 fmol/mm^2). Similar results were obtained for the injection of BSA (10 μg/mL) onto the second flow cell of each sensor chip, that was then used as a negative control and for blank subtraction. ΔF508-NBD1 (at 600 nM) in the absence or in the presence of the various compounds (all at 500 μM) in 0.05% surfactant P20 and 5% DMSO, pH 7.4, was injected over the K8 or BSA surfaces for 90 s at 10 μL/min, 25 °C and then washed until dissociation was observed.

T2 sequence (P26361 with tags, fused parts or gaps DEL508-508 limits assumed): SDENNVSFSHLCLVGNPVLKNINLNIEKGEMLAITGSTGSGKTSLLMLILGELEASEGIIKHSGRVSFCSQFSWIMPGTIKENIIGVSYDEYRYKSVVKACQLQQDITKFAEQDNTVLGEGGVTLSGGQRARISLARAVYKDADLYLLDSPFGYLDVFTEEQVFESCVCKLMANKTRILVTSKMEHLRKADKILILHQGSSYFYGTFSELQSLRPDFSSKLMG
T3 sequence (P26361 with tags, fused parts or gaps DEL508-508 limits assumed): as above
T1 sequence (P26361 with tags, fused parts or gaps DEL508-508 limits assumed): as above

binding to ΔF508-NBD1 (SPR) (ΔF508-NBD1) | Kd (ΔF508-NBD1) [µM] | RU of ligand bound to ΔF508-NBD1 at equilibrium (maximal RU) (ΔF508-NBD1) [RU] | Molecule | effect of compound injection on K8-saturated ΔF508-NBD1 surface [1] | other results
 | 99.3 ± 14.5 | 32.0 ± 4.2 | CSc1cccc(Nc2nc(-c3ccc(Br)cc3)cs2)c1 [Compound 4] | inability of compounds 4 and 6 to alter the binding of K8 | inhibition at 500 µM [2]: 50%
 | 40.3 ± 2.5 | 13.0 ± 1.4 | CSc1cccc(Nc2nc(-c3cccc(Cl)c3)cs2)c1 [Compound 5] | increase of bound RU | ΔF508-NBD1 bound to immobilized K8 at equilibrium in the presence of compound [2]: 45 RU
do not bind |  |  | CC(C)(C)c1cc(C(C)(C)C)c(NC(=O)c2c[nH]c3ccccc3c2=O)cc1O [VX770, Ivacaftor, reference compound] |  | binding to NBD1 (NBD1): does not bind to NBD1

Continued, molecule first:

Molecule | binding to ΔF508-NBD1 (SPR) (ΔF508-NBD1) | Kd (ΔF508-NBD1) [µM] | RU of ligand bound to ΔF508-NBD1 at equilibrium (maximal RU) (ΔF508-NBD1) [RU] | effect of compound injection on K8-saturated ΔF508-NBD1 surface [1] | other results
COc1ccc(Cl)cc1Nc1nc(-c2sc(NC(=O)c3ccccc3)nc2C)cs1 [C4a, reference compound] | do not bind |  |  |  | binding to NBD1 (NBD1): does not bind to NBD1
CSc1cccc(Nc2nc(-c3ccc4[nH]c(=O)oc4c3)cs2)c1 [Compound 6] |  | 198 ± 4.5 | 114.0 ± 5.6 | inability of compounds 4 and 6 to alter the binding of K8 | effect on the ΔF508-NBD1/K8 interaction [2]: ineffective
CSc1cccc(Nc2nc(-c3coc4ccccc34)cs2)c1 [Compound 7] | do not bind |  | 0 to 4 |  | 
Cc1ccc(NC(=O)C2(c3ccc4c(c3)OC(F)(F)O4)CC2)nc1-c1cccc(C(=O)O)c1 [VX809, Lumacaftor, reference compound] |  | 24.2 ± 6.2 | 163.7 ± 23.7 | increase of bound RU | ΔF508-NBD1 bound to immobilized K8 at equilibrium in the presence of compound [2]: 68 RU
K8: keratin 8, known CFTR chaperone, purchased recombinant protein (protein, UniProt P05787 1-483, looked up) Keratin, type II cytoskeletal …: MSIRVTQKSYKVSTSGPRAFSSRSYTSGPGSRISSSSFSRVGSSNFRGGLGGGYGGASGMGGITAVTVNQSLLSPLVLEVDPNIQAVRTQEKEQIKTLNNKFASFIDKVRFLEQQNKMLETKWSLLQQQKTARSNMDNMFESYINNLRRQLETLGQEKLKLEAELGNMQGLVEDFKNKYEDEINKRTEMENEFVLIKKDVDEAYMNKVELESRLEGLTDEINFLRQLYEEEIRELQSQISDTSVVLSMDNSRSLDMDSIIAEVKAQYEDIANRSRAEAESMYQIKYEELQSLAGKHGDDLRRTKTEISEMNRNISRLQAEIEGLKGQRASLEAAIADAEQRGELAIKDANAKLSELEAALQRAKQDMARQLREYQELMNVKLALDIEIATYRKLLEGEESRLESGMQNMSIHTKTTSGYAGGLSSAYGGLTSPGLSYSLGSSFGSGAGSSSFSRTSSSRAVVVKKIETRDGKLVSESSDVLPK |  |  |  |  | binding of K8 to immobilized ΔF508-NBD1 (ΔF508-NBD1; K8 600 nM, BSA surface as negative control): specifically binds
